Experiments:
[1] = test system: promoter region of the MLH1 gene; test: methylation of promoter region of MLH1 gene in RKO cells, pyrosequencing; assay type: cell-based
Protocol: 1.0×10^5 cells of the […] cells were seeded over a 6 cm dish and treated with a medium containing 5.0 μM 5-aza-2'-deoxycytidine (AZA) over 7 days from the next day. The medium was replaced with a fresh medium every 24 hours. The cells were treated with a medium containing 10 nM trichostatin A (TSA) on the 7th day and recovered on the 8th day. […] The cells of the 8th day were cultured under hypoxic conditions of 1% O2 and 5% CO2. The cells were treated with 0.1% DMSO containing 5 μM PIP1 or PIP2, recovered on the 0th day (R0), the 20th day (R20) and the 30th day ([…]), and examined for the degree of methylation in the region from -27 to -1 of the MLH1 gene by pyrosequencing. During the treatment with PIP, the medium containing PIP1 or PIP2 was replaced every 5 days, and the cells were subcultured when becoming confluent.

[2] = test system: RKO cells; test: genome-wide DNA methylation analysis (Infinium Human Methylation 450 BeadChip) in RKO cells; assay type: cell-based; conditions: for genome-wide methylation level: RKO cells, 0.5 μM AZA, 10 μM Im0 or Im3 under hypoxic conditions, FIG. 8; for genes whose methylation level was reduced by Im0 and Im3 in common, TSS±1 kb region / probes whose methylation level was reduced by Im0 and Im3 in common, TSS±1 kb region / probes whose methylation level was reduced by Im0 and Im3 in common, whole genome: β value <0.65 in Im0-treated and in Im3-treated cells of H75; for genes whose methylation was selectively reduced by this PIP, TSS±1 kb region / probes whose methylation was selectively reduced by this PIP, TSS±1 kb region / probes whose methylation was selectively reduced by this PIP, whole genome: β value <0.65 with this PIP and >0.8 with the other PIP on H75, 10 μM, 75 days, hypoxia after AZA
Protocol: (§1) The large intestine cancer cell line RKO cells were seeded at a density of 1×10^5 cells over a 6 cm dish and incubated for 24 hours. Subsequently, the culture solution was replaced with a culture solution containing 0.5 μM 5-aza-2′-deoxycytidine (AZA). The cultured cells were exposed to AZA over 2.4 hours. The cells were recovered on the 10th day, or cultured under hypoxic conditions as mentioned below.
(§2) In order to culture the cells under hypoxic conditions, the cells were cultured for 8 days under continuous aeration conditions with humidified air containing 94% N2, 5% CO2 and 1% O2 in an incubator equipped with an O2 sensor and MCO-18M regulator (Sanyo Electric Co., Ltd., Osaka, Japan). The CO2 concentration was maintained by the internal CO2 concentration regulation mechanism. Subsequently, the AZA-treated cells were treated with 0.1% DMSO containing 10 μM Im0 or Im3 for 75 days. During this operation, the medium containing PIP was replaced every 5 days. The cells were subcultured at a density of 2×10^5 cells over a 6 cm dish when becoming confluent. The cells were recovered on the 0th day (H0, before hypoxia treatment) and the 75th day (H75).
Genome-wide DNA methylation analysis was conducted as follows: first, 500 ng of genomic DNA obtained from each sample was treated with bisulfite using Zymo EZ DNA Methylation Kit (Zymo Research Corp., Irvine, Calif., USA). Whole genome amplification, labeling, hybridization and scanning were performed according to manufacturers' manuals.
Methylation analysis was conducted using Infinium Human Methylation 450 BeadChip (Illumina, Inc.) for the whole genome or in a ±1 kb region of the transcription start site (TSS) of each gene. Specifically, the ratio of probes for methylated sequences to the total of the probes for methylated sequences and probes for nonmethylated sequences (in the present specification, referred to as a “β value”) was determined. The β value is 0.00 when no methylation is found in all CpG sites, and is 1.00 when all CpG sites are methylated.
First, genes with β value >0.8 in the negative control RKO cells were selected. Genes with β value <0.5 on HO and β value >0.8 in the presence of treatment with 0.1% DMSO on H75 were further selected from the selected genes.

[3] = test system: MLH1 gene; test: expression of mRNA of the MLH1 gene in RKO cells by RT-PCR; assay type: cell-based
[4] = test system: RKO cells; test: gene expression analysis by RNA deep sequencing (FPKM) in RKO cells; assay type: cell-based; conditions: 10 μM PIP, hypoxia after AZA, FIG. 8 right graphs
Protocol: as §1, §2
Next, the expression levels of particular genes were analyzed. An RNA library was prepared using TruSeq Stranded mRNA Sample Prep Kit (Illumina, Inc.) according to the manufacturer's manual. Deep sequencing was performed using Illumina HiSeq 1500 or NextSeq 500 platform. FASTQ reads were mapped using TopHat, and transcripts were assembled using Cufflinks. gene expression was expressed as FPKM (fragments per kilobase of exon per million reads mapped). The results were as shown in the right graphs of FIG. 8.

[5] = test system: region from −27 to −1 of the MLH1 gene; test: in vitro methylation of MLH1 plasmid by CpG methyltransferase M.SssI, pyrosequencing; assay type: biochemical; conditions: varying concentrations of PIP1, M.SssI, FIG. 3C
Protocol: A region from −780 to +483 (SEQ ID NO: 1) of MLH1 was amplified from the genomic DNA of the RKO cells by PCR using primers of SEQ ID NOs: 6 and 7 to obtain a DNA fragment, which was then integrated into pGEM-T Easy vector (Promega Corp., Fitchburg, USA) according to the manufacturer's manual (see FIG. 3A). 1 μg of the obtained plasmid was incubated at 25° C. for 12 hours in varying concentrations of PIP1 or 40 μM of PIP2 and 1× NEB buffer solution 2 (New England Biolabs Inc., Ipswich, USA) to bind the pyrrole imidazole polyamide to the DNA. For a negative control, DMSO was added to the plasmid and incubated.
[…] of S-adenosylmethionine (New England Biolabs Inc.) and 4 units of CpG methyltransferase M.SssI (New England Biolabs Inc.) were added to each sample, and 5% DMSO was added thereto to adjust the amount to 20 μL. After incubation at 37° C. for 2 hours, the reaction was terminated by incubation at 65° C. for 20 minutes. The DNA was purified by ethanol precipitation and dissolved in 100 μL of 10 mM Tris-HCl (pH 8.0). Then, the degree of DNA methylation at various sites of the MLH1 gene was tested by pyrosequencing. The primers used were as described in the following table.

[6] = test system: FAM-labeled double-stranded oligo DNA of 15 base pairs including a region from −22 to −8 of the MLH1 gene; test: gel shift assay of binding to the target sequence; conditions: 1 μM double-stranded oligo DNA, 37° C. for 1 hour, FIG. 2A
Protocol: PIP1 was confirmed by gel shift assay to bind to the target sequence. FAM-labeled double-stranded oligo DNA of 15 base pairs including a region from −22 to −8 of the MLH1 gene (double-stranded oligo DNA obtained by annealing sequences of SEQ ID NOs: 2 and 3) was prepared (lower part of FIG. 2A). 1 μM double-stranded oligo DNA was mixed at an indicated final concentration with PIP1 or PIP2 dissolved in 10 μL of a reaction solution containing 10 mM Tris-HCl (pH 8.0) and 10% DMSO, followed by incubation at 37° C. for 1 hour. The obtained reaction product was electrophoresed using 20% polyacrylamide gel, and double-stranded DNA on the gel was visualized using LAS-3000 (Fujifilm Corp., Japan).

Compound	degree of methylation in the promoter region from −27 to −1 of the MLH1 gene after demethylation treatment ([1]; RKO cells, 5.0 μM AZA over 7 days, 10 nM TSA on the 7th day, FIG. 4A)	genome-wide methylation level [2]	expression of mRNA of the MLH1 gene after demethylation treatment ([3]; RKO cells, 5.0 μM AZA over 7 days, 10 nM TSA on the 7th day, FIG. 4B)	genes whose methylation level was reduced by Im0 and Im3 in common, TSS±1 kb region [2] [genes]	probes whose methylation level was reduced by Im0 and Im3 in common, TSS±1 kb region [2] [probes]	probes whose methylation level was reduced by Im0 and Im3 in common, whole genome [2] [probes]	genes whose methylation was selectively reduced by this PIP, TSS±1 kb region [2] [genes]	probes whose methylation was selectively reduced by this PIP, TSS±1 kb region [2] [probes]	probes whose methylation was selectively reduced by this PIP, whole genome [2] [probes]	gene expression of NOSTRIN, DSCR9, SLC22A25, OR3A4P and C1WTNF6 [4]	gene expression of TCP11, LYPDS, STAR, LOC253573 and LOC100507573 [4]	inhibition of DNA methylation in the region from −27 to −1 of the MLH1 gene [5]	degree of DNA methylation in the region from −27 to −1 of the MLH1 gene on R20 and R30 ([1]; AZA or AZA+TSA pretreated RKO cells, hypoxic conditions 1% O2, 5 μM PIP, FIGS. 6A and 6B)	methylation in a −70 region, a −63 region, a +156 region, and a +171 region of the MLH1 gene ([1]; sites distant from the target site, hypoxic conditions, 5 μM PIP, FIG. 6E)	binding to the target double-stranded DNA (band shift) [6]	expression of mRNA of the MLH1 gene, which is reduced along with methylation ([3]; AZA+TSA-treated cells, hypoxic conditions, 5 μM PIP, FIGS. 6C and 6D)
Nc1ncn([C@H]2C[C@H](O)[C@@H](CO)O2)c(=O)n1 [AZA, 5-aza-2′-deoxycytidine, reference compound]	reduced	demethylated genome-wide	restored	–	–	–	–	–	–	–	–	–	–	–	–	–
Me-Py-Py-Im-Py-β-Dp [Im3]	–	methylation levels of genes as a whole were drastically reduced	–	9	19	19	254	450	1171	selectively maintained	maintained	–	–	–	–	–
Me-Py-Py-Py-Py-β-Dp [Im0]	–	methylation levels of some genes were drastically reduced	–	9	19	19	1110	2135	6099	–	maintained	–	–	–	–	–
CC(=O)Nc1cc(C(=O)Nc2cn(C)c(C(=O)NCCC(=O)Nc3cn(C)c(C(=O)Nc4cn(C)c(C(O)Nc5c[nH]c(C(=O)NCCCC(=O)Nc6cn(C)c(C(=O)Nc7cc(C(=O)NCCC(=O)Nc8cn(C)c(C(=O)Nc9cc(C(=O)Nc%10cc(C(=O)NCCC(=O)NCCCN(C)C)n(C)c%10)n(C)c9)n8)n(C)c7)n6)c5)n4)n3)n2)n(C)c1 (stereo not drawn) [PIP1, Ac-Py-Im-β-Im-Im-Py-γ-Im-Py-β-Im-Py-Py-β-Dp]	–	–	–	–	–	–	–	–	–	–	–	inhibited DNA methylation in a concentration-dependent manner	an increase in the degree of methylation was suppressed	suppress methylation	confirmed to bind to the target double-stranded DNA	maintained

Reference: patent US20210106612A1, “TARGET GENE TRANSCRIPTIONAL REPRESSION INHIBITOR THAT CAN BE DESIGNED IN A SEQUENCE-SPECIFIC MANNER, COMPOSITION CONTAINING SAME, AND USE THEREOF” (National University Corporation Chiba University, priority 2016, published 2021)
